{
  "source": "paper PMC10298626",
  "about": "(International Journal of Molecular Sciences, 2023)",
  "key": {"[1]": {"molecular_target": "acetylcholinesterase", "design": "method as in PMID 8823504, PMID 7649881, PMID 9535168", "conditions": "read-out: IC50 against acetylcholinesterase; cited from earlier work"}, "[2]": {"tested_on": "LPS-stimulated RAW264.7 cells", "test": "NO production (Griess reagent) in LPS-stimulated RAW264.7 cells", "type": "cell-based, Mouse", "conditions": "then LPS (500 ng/mL) 20 h, LPS alone 25.9, control 3.1", "experimental": "A high concentration of NO promotes the synthesis of inflammatory mediators, leading to an inflammatory response, and has been reported to be a cause of various immune diseases. Therefore, this study was conducted to investigate the effect of coumarin derivatives on the production of NO induced by LPS stimulation in RAW264.7 cells. The cells were treated with coumarin derivatives at concentrations of 20, 40, and 80 μM for 2 h. Then, the cells were treated with LPS. After 20 h, the culture supernatant was recovered, and the amount of NO was measured. […] The anti-inflammatory activity of these derivatives depended on the position of the substituted group rather than the electron density of the substituted group.\nThe Griess reagent was used to measure NO production. RAW264.7 cells were seeded into a 96-well plate and cultured for 24 h. The cells were treated with 20, 40, and 80 μM of coumarin derivatives, cultured for 2 h, and then cultured with LPS (500 ng/mL) for 20 h. The same amount of cell supernatant and Griess reagent were used for the reaction, and absorbance was measured at 540 nm."}, "[3]": {"test": "in vitro", "type": "cell-based", "conditions": "mouse, RAW264.7 cells, then LPS (500 ng/mL) 20 h, read-out: Cell viability, Average (%)", "experimental": "To investigate the anti-inflammatory activity of coumarin derivatives, cell viability was analyzed by treating RAW264.7 cells with 23 types of coumarin derivatives at concentrations of 20, 40, and 80 μM for 2 h and with LPS for 20 h.\nMouse macrophage RAW264.7 cells were purchased from the Korea Cell Line Bank (Seoul, Republic of Korea) and cultured in Dulbecco’s Modified Eagle Medium (Corning, NY, USA) containing 10% fetal bovine serum and 1% penicillin/streptomycin at 37 °C and 5% CO2. The medium was changed every 2 days and subcultured when the cells grew > 80%.\nEZ-Cytox cell viability assay kit (Dogen, Suwon, Republic of Korea) was used to measure cell viability according to the manufacturer’s instructions. RAW264.7 cells were seeded into a 96-well plate (1 × 10^5 cells/well) and treated with coumarin derivatives at concentrations of 20, 40, and 80 μM. After 2 h, the cells were treated with LPS (500 ng/mL) and cultured for 24 h in a 37 °C, 5% CO2 incubator. The culture supernatant was treated with 10% EZ-Cytox reagent, and a microplate reader was used to measure the absorbance at 450 nm."}, "[4]": {"tested_on": "LPS-stimulated RAW264.7 cells", "test": "NO production (Griess reagent) in LPS-stimulated RAW264.7 cells", "type": "cell-based, Mouse", "conditions": "Dexamethasone (100 μM) treated for 2 h and LPS treated for 20 h; LPS alone 25.9, control 3.1"}},
  "note": "Marks after values point to notes of the source that are not given here.",
  "data": [
    {"smiles": "COc1ccc(-c2cc3c(c(=O)o2)C[C@]2(O)[C@@]4(C)C(=O)C=CC(C)(C)[C@]4(O)CC[C@@]2(C)O3)cc1OC", "note": "[Arisugacin A]", "values": [
      {"measurement": "IC50", "setting": "[1]", "value": 1, "unit": "nM"}
    ]},
    {"smiles": "N#CC1=C(N)Oc2c(c(=O)oc3ccccc23)C1c1ccccc1", "note": "(stereo not drawn) [Coumarin derivative 23]", "values": [
      {"measurement": "NO production, Average", "setting": "[2]; 20 μM for 2 h", "value": 30.77, "unit": "µM"},
      {"measurement": "NO production, Average", "setting": "[2]; 40 μM for 2 h", "value": 29.80, "unit": "µM"},
      {"measurement": "NO production, Average", "setting": "[2]; 80 μM for 2 h", "value": 27.39, "unit": "µM"},
      {"measurement": "viability at 22 h, 20 μM", "setting": "[3]; 20 μM for 2 h", "value": 119, "unit": "%"},
      {"measurement": "viability at 22 h, 40 μM", "setting": "[3]; 40 μM for 2 h", "value": 118, "unit": "%"},
      {"measurement": "viability at 22 h, 80 μM", "setting": "[3]; 80 μM for 2 h", "value": 117, "unit": "%"}
    ]},
    {"smiles": "C[C@@H]1C[C@H]2[C@@H]3CCC4=CC(=O)C=C[C@]4(C)[C@@]3(F)[C@@H](O)C[C@]2(C)[C@@]1(O)C(=O)CO", "note": "[Dexamethasone]", "values": [
      {"measurement": "NO production, Average (μM)", "setting": "[4]", "value": "6.5 ^# μM"}
    ]},
    {"smiles": "COc1ccc(-c2cc3c(c(=O)o2)C[C@]2(O)[C@@]4(C)C(=O)C=CC(C)(C)[C@]4(O)CC[C@@]2(C)O3)cc1", "note": "[Arisugacin B]", "values": [
      {"measurement": "IC50", "setting": "[1]", "value": 26, "unit": "nM"}
    ]}
  ]
}
